Laboratory results reported in ChEMBL document CHEMBL1145436, “Design and synthesis of 6-methyl-2-oxo-1,2,3,4-tetrahydro-pyrimidine-5-carboxylic acid derivatives as PPARgamma activators” (Bioorg Med Chem Lett, 2007).

target: T1, Peroxisome proliferator-activated receptor gamma (Homo sapiens, UniProt P37231)
T1 sequence (P37231 whole entry): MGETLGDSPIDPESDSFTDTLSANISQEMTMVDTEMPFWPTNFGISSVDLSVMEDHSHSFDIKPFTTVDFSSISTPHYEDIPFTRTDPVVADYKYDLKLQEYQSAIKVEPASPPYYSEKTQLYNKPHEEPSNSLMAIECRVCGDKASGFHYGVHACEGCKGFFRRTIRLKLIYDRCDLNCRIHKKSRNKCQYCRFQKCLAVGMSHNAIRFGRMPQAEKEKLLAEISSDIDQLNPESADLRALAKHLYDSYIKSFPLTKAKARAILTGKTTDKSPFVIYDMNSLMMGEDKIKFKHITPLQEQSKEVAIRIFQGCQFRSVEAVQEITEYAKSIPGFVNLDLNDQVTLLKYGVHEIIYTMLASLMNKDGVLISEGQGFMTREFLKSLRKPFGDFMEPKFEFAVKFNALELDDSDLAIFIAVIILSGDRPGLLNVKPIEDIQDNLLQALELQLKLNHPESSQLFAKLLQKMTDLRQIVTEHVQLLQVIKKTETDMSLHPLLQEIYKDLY
Description: Displacement of [3H]rosiglitazone from PPAR gamma

Row | Structure (SMILES) | IC50
1 | CC1=C(C(=O)O)C(c2ccc(OCCn3c4ccccc4c4ccccc43)cc2)NC(=O)N1 (centres undefined) | 900 nM
2 | COc1cc(C2NC(=O)NC(C)=C2C(=O)O)ccc1OCCn1c2ccccc2c2ccccc21 (centres undefined) | 820 nM
3 | CC1=C(C(=O)O)C(c2ccc(OCCOc3cccc4[nH]c5ccccc5c34)cc2)NC(=O)N1 (centres undefined) | 1000 nM
4 | CC1=C(C(=O)O)C(c2ccc(OCCOc3cccc4ccc(C)nc34)cc2)NC(=O)N1 (centres undefined) | 600 nM
5 | COc1cc(C2NC(=O)NC(C)=C2C(=O)O)ccc1OCCOc1cccc2ccc(C)nc12 (centres undefined) | 800 nM
6 | CC1=C(C(=O)O)C(c2ccc(OCCn3ccc4cccnc43)cc2)NC(=O)N1 (centres undefined) | 1000 nM
7 | COc1cc(C2NC(=O)NC(C)=C2C(=O)O)ccc1OCCn1ccc2cccnc21 (centres undefined) | 720 nM
8 | CC1=C(C(=O)O)C(c2ccc(OCCOc3cc(C)nc4ccccc34)cc2)NC(=O)N1 (centres undefined) | 760 nM
9 | COc1cc(C2NC(=O)NC(C)=C2C(=O)O)ccc1OCCOc1cc(C)nc2ccccc12 (centres undefined) | 940 nM
10 | COc1cccc2c1c1ccccc1n2CCOc1ccc(C2NC(=O)NC(C)=C2C(=O)O)cc1 (centres undefined) | 800 nM
11 | CC1=C(C(=O)O)C(c2ccc(OCCCn3ccc4cccnc43)cc2)NC(=O)N1 (centres undefined) | 750 nM
12 | CC1=C(C(=O)O)C(c2ccc(OCCCOc3cc(C)nc4ccccc34)cc2)NC(=O)N1 (centres undefined) | 750 nM
13 | CC1=C(C(=O)O)C(c2ccc(OCCOc3ccc(C(=O)c4ccc(Cl)cc4)cc3)cc2)NC(=O)N1 (centres undefined) | 930 nM
14 | CC1=C(C(=O)O)C(c2ccc(OCCCOc3cccc4[nH]c5ccccc5c34)cc2)NC(=O)N1 (centres undefined) | 900 nM
